Test results taken from article PMC7482066, “Unstable Mechanisms of Resistance to Inhibitors of Escherichia coli Lipoprotein Signal Peptidase” (mBio, 2020).
In brackets after ≈: the same amount, converted by molar mass.

Legend:
E. coli CFT073 Δlpp [1] = experiment: MIC; type: cell-based
Description: (§1) MICs of compounds in each strain were determined in cation-adjusted Mueller-Hinton II (MHII) broth or MHII agar according to the Clinical and Laboratory Standards Institute protocol (CLSI 2006). To measure the effect of protein binding on activity, MIC assays were performed in the presence of 50% heat-inactivated human serum. The serum killing assay was performed as described previously ([43]). FOR assays and growth on plates containing G0790 were always performed on MHII agarose plates.

E. coli MG1655 ΔtolC = experiment: MIC; type: cell-based; conditions: E. coli MG1655 WT vs MG1655 ΔtolC
Description: as §1

E. coli CFT073(pBADlspA) = experiment: MIC; type: cell-based; conditions: in words
Description: as §1

A. baumannii 17978 = experiment: MIC; type: cell-based; conditions: A. baumannii ATCC 17978; in words
Description: as §1

S. aureus USA300 = experiment: MIC; type: cell-based; conditions: in words
Description: as §1

E. coli CFT073 imp4213 = experiment: MIC; type: cell-based; conditions: in words
Description: as §1

E. coli CFT073 Δlpp [2] = experiment: Frequency of resistance (FOR); type: cell-based; conditions: for FOR (frequency of resistance): MHII agarose
Description: (§2) Frequencies of resistance (FORs) of G0790 were determined for E. coli CFT073, E. cloacae (ATCC 13047), and K. pneumoniae (ATCC 700603) as previously published ([70]). To determine the FOR, 3 to 4 colonies of the strain to be tested were picked from a fresh plate and diluted to an optical density at 600 nm (OD600) of 0.00001 in 1 ml of cation-adjusted MHBII. Ten independent 5-ml cultures in MHBII were prepared by inoculating 5 μl (approximately 1 × 10^3 CFU) and incubated at 37°C for 18 h. The bacteria were pelleted by centrifugation at 4000 × g at 4°C for 15 min and resuspended in 0.5 ml fresh MHBII. Two hundred fifty microliters of the bacterial suspension was plated evenly on MHII agarose plates containing globomycin or G0790 at a final concentration of 4× and 8× MIC. In parallel, CFU from each independent culture was measured by spotting 10-fold serial dilutions on MHII agar plates and incubated at 37°C for 18 h. Colonies were counted at days 1, 2, and 3 postinoculation. FOR was calculated as the ratio of the total number of resistant colonies relative to the total CFU plated. For strains that had no resistant colonies growing on plates, the p0 method was used to calculate the FOR (FOR = m/total CFU plated, where m = −ln p0 and p0 is the proportion of cultures with no mutants; 0.7 ≥ p0 ≥ 0.1), as described previously ([71]). Colonies were picked and resuspended in 30 μl MHBII broth medium, and 10 μl was plated on an MHII agar plate containing G0790 to be used to determine the MIC. Of the remaining 20 μl, half was used to inoculate 1.5 ml MHBII broth medium containing G0790 and grown at 37°C for 18 h to generate cell lysates for Western blot analysis, isolate genomic DNA (gDNA) for whole-genome sequencing, and for frozen glycerol stocks.

E. coli CFT073 [3] = experiment: Frequency of resistance (FOR); type: cell-based; conditions: 4× MIC, MHII agarose
Description: as §2

K. pneumoniae 700603 = experiment: Frequency of resistance (FOR); type: cell-based; conditions: 4× MIC
Description: as §2

E. cloacae 13047 = experiment: Frequency of resistance (FOR); type: cell-based; conditions: 4× MIC, MHII agarose
Description: as §2

[4] = system: G0790-resistant E. coli CFT073; experiment: MIC against G0790-resistant CFT073 strains; type: cell-based
Description: as §1, §2

G0790-resistant CFT073 = experiment: MIC after in vitro passaging of G0790-resistant strains; type: cell-based, E. coli; conditions: in words
Description: This bacterial culture is referred to as passage 1 (P1). […] For each passage, MICs were measured and cell lysates and genomic DNA were prepared for Western blot and whole-genome sequencing analyses, respectively.

[5] = system: G0790-resistant CFT073 Δlpp; experiment: MIC against G0790-resistant CFT073 Δlpp strains; type: cell-based, E. coli; conditions: non-lspA_GA
Description: as §1
Frequencies of resistance (FORs) of G0790 were determined for E. coli CFT073, E. cloacae (ATCC 13047), and K. pneumoniae (ATCC 700603) as previously published ([70]). To determine the FOR, 3 to 4 colonies of the strain to be tested were picked from a fresh plate and diluted to an optical density at 600 nm (OD600) of 0.00001 in 1 ml of cation-adjusted MHBII. Ten independent 5-ml cultures in MHBII were prepared by inoculating 5 μl (approximately 1 × 10^3 CFU) and incubated at 37°C for 18 h. […] In parallel, CFU from each independent culture was measured by spotting 10-fold serial dilutions on MHII agar plates and incubated at 37°C for 18 h. Colonies were counted at days 1, 2, and 3 postinoculation. FOR was calculated as the ratio of the total number of resistant colonies relative to the total CFU plated. […]

E. coli CFT073 [6] = experiment: Bactericidal activity, CFU over time; type: cell-based; conditions: G0790 at 2× MIC, two independent experiments in duplicates

For `CCCCCC[C@H]1OC(=O)CNC(=O)[C@H]([C@H](C)O)NC(=O)[C@H](CN)NC(=O)[C@H](C2CCCCC2)NC(=O)[C@H](CCC)N(C)C(=O)[C@@H]1C` [G0790], the MIC (E. coli CFT073 Δlpp [1]; CFT073 Δlpp parent, resistant-strain study) was 19.5 mg/L (≈ 29.2 µM), the “Susceptibility of CFT073 Δlpp relative to parental WT” value (E. coli CFT073 Δlpp [1]; in words) was “more resistant to G0790 than the parental WT strain” and the “WT/tolC MIC shift” value (E. coli MG1655 ΔtolC) was about 31 fold. The “Effect of LspA overexpression or lpp deletion on inhibition of WT CFT073 and CFT073 imp4213” value (E. coli CFT073(pBADlspA)) was “decreased upon LspA overexpression or lpp deletion”, the “MIC against A. baumannii compared to GBM” value (A. baumannii 17978) was “modestly decreased MIC” and the “Activity against S. aureus USA300” value (S. aureus USA300) was “no increased activity”. For the same compound, the “Activity against CFT073 imp4213 relative to GBM” value (E. coli CFT073 imp4213) was “more active than GBM”, the “Decrease in FOR in CFT073 Δlpp compared to WT CFT073” value (E. coli CFT073 Δlpp [2]; 4× MIC) was about 85 fold and the “FOR (frequency of resistance)” value (E. coli CFT073 Δlpp [2]; 4× MIC) was 3.4 × 10^−11. For the same compound, the “FOR (frequency of resistance)” value (E. coli CFT073 Δlpp [2]; 8× MIC, no colonies, p0 method) was <1.7 × 10^−11, the “FOR (frequency of resistance)” value (E. coli CFT073 [3]) was 2.9 × 10^−9 and the “FOR increase in K. pneumoniae 700603 relative to E. coli” value (K. pneumoniae 700603) was about 17 fold. The “FOR (frequency of resistance)” value (K. pneumoniae 700603; MHII agarose) was 4.8 × 10^−8, the “FOR (frequency of resistance)” value (E. cloacae 13047) was 2.7 × 10^−9 and the MIC ([4]; CFT073 4×-R1, ISEc10-istB insertion (3′ of lpp)) was 19.5 mg/L (≈ 29.2 µM). The MIC ([4]; CFT073 4×-R2, Lpp p.Asp54fs, Non-lspA_GA) was 19.5 mg/L (≈ 29.2 µM), the MIC ([4]; CFT073 4×-R3, lspA_GA) was 19.5 mg/L (≈ 29.2 µM) and the MIC ([4]; CFT073 4×-R4, lpp deletion, Non-lspA_GA) was 19.5 mg/L (≈ 29.2 µM). For the same compound, the MIC ([4]; CFT073 4×-R6, ISEc10-istB insertion (3′ of lpp)) was 39 mg/L (≈ 58.5 µM), the MIC ([4]; CFT073 4×-R7, ISEc10-istB insertion (3′ of lpp), Non-lspA_GA) was 39 mg/L (≈ 58.5 µM) and the MIC ([4]; CFT073 4×-R9, lpp deletion) was 19.5 mg/L (≈ 29.2 µM). For the same compound, the MIC ([4]; CFT073 4×-R10, lspA_GA) was 19.5 mg/L (≈ 29.2 µM), the MIC ([4]; CFT073 8×-R1, lspA_GA) was 19.5 mg/L (≈ 29.2 µM) and the MIC ([4]; CFT073 8×-R3, 5′ lpp deletion, Non-lspA_GA) was 39 mg/L (≈ 58.5 µM). It also gave an MIC ([4]; CFT073 8×-R4, lpp deletion) of 39 mg/L (≈ 58.5 µM), an MIC ([4]; CFT073 8×-R5, ISEc10-istB insertion (5′ of lpp), lspA_GA) of 39 mg/L (≈ 58.5 µM) and an MIC ([4]; CFT073 8×-R6, lpp deletion, Non-lspA_GA) of 19.5 mg/L (≈ 29.2 µM). For the same compound, the “MIC after passaging in the absence of G0790, lspA_GA mutants” value (G0790-resistant CFT073; 4×-R3, 4×-R10, 8×-R1, 8×-R5, 3 days) was “comparable to the MIC of the parental WT strain”, the “Phenotype after passaging in the absence of G0790, 8×-R5” value (G0790-resistant CFT073; 8×-R5 (GA and ISEc10-istB insertion upstream of lpp)) was “reverted to the WT phenotype” and the “Resistance after passaging in the absence of G0790, lpp insertion (downstream) or lpp deletion strains” value (G0790-resistant CFT073; 3 days) was “maintained resistance to G0790”. For the same compound, the MIC ([5]; CFT073 Δlpp 4×-R1, lspA_GA) was 78 mg/L (≈ 117 µM), the MIC ([5]; CFT073 Δlpp 4×-R2, lspA_GA) was 78 mg/L (≈ 117 µM) and the Bactericidal activity (E. coli CFT073 [6]) was “bactericidal”.
